Results from patent EP0384380A2, “Novel peptide derivatives and their pharmaceutical use” (JAPAN TOBACCO INC., priority 1989, dated 1990).
Like-named read-outs stand apart in the source and are kept apart here.

Legend:
Type in all cases: in vivo
Wistar male rats = assay: Flexor reflex in spinalized rats; parameters: key to Area below the reflex amplitude linking line: area under % amplitude vs. time line over 60 min (pre-dose = 100%); details: pre-dose amplitude = 100%; for response vs control in vivo at 0.1 mg/kg / response vs control in vivo at 0.3 mg/kg: Rattus norvegicus; for Area below the reflex amplitude linking line: covering 60 minutes
Description: Flexor reflex in spinalized rats
Wistar male rats (weighing 450 - 520 g) were anesthetized with ether, and the cervical part of spinal cord was exposed, into which a tracheal cannula was inserted. The vagus nerves were severed bilaterally at the cervical region. Thereafter, the cervical vertebra C1 segment was transected, and rapidly, artificial ventilation was given with the use of an artificial respirator (Shinano Factory 60 rpm. 4 ml/stroke). The rat was placed on a thermostated apparatus in which water thermostated at 37 C was circulated and fixed thereto at forelimbs, right hindlimb, tooth and tail. A venous cannula was inserted into the femoral vein in the right hindlimb and two needle electrodes were subcutaneously inserted into the left skin of the toe, and a piece of thread was attached to the limb with the edge of the thread bonded to a force-displacement - transducer. Tension of about 5 g was applied to the thread. Through the elctrodes, electric stimuli of 50 - 100 V were applied once per 30 seconds. The flexor reflex was recorded on the polygraph via a force-displacement transducer. After the reaction became constant in about one-hours' lapse for stabilization, the test compound dissolved in saline was intravenously administered. Thereafter, the reaction was recorded for 1 hour. In the data, taking the mean of the three reactions just before administration of the test compound for 100%, the reflex amplitude at 1-, 3-, 5-, 8-, 10-, 15-, 20-, 30-, 40-, 50- and 60- minutes' lapse after administration of the test compound were calculated. In Table 3, there are shown calculated area below the straight line linking the obtained reflex amplitude at the respective above-mentioned time covering 60 minutes in the case of administration of each test compounds at the dose of 0.1 mg/kg, and the reflex amplitude at 10- and 60-minutes' lapse after administration (Table 3).

ICR male mice [1] = assay: Anti-chlorpromazine action (locomotor stimulant action); details: SC, mice given chlorpromazine HCl 5 mg/kg s.c., test compound one hour later, estimated from regression line; for ED (3000 locomotor counts): Mus musculus, 2 h, read-out: Concentration of test compound necessary for inducing 3000 count of automatism quantity in 2 hours
Description: Anti-chlorpromazine action (Locomotor stimulant action)
ICR male mice weighing 35 - 40 g (four animals per group) were subcutaneously administered with chlorpromazine HCI at the dose of 5 mg/kg and immediately set in the automatic locomotor-measuring apparatus (AUTOMEX). One hour later, the test compound dissolved in saline was subcutaneously administered, and the locomotor activity was measured every 15 minutes for 120 minutes. The total locomotor activity during the period of 120 minutes was calculated and the regression line was estimated based on the method of least squares, from which the amount of the test compound necessary for inducing 3000 locomotor-count was estimated (Table 2).

ICR male mice [2] = assay: Anti-reserpine action (antagonistic action against hypothermia); details: SC, mice given reserpine 5 mg/kg s.c., test compound 3 or 3.5 hours later, estimated from regression line; for ED (1 degC rise in body temperature): Mus musculus, 2 h, read-out: Concentration of test compound necessary for raising body temperature by 1 °C on the average for 120 minutes
Description: Anti-reserpine action (Antagonistic action against hypothermia)
ICR male mice weighing 35 - 40 g were subcutaneously administered with reserpine at the dose of 5 mg/kg. About 2 hours later, each of the mice was held by a mouse-holder, and a body temperature sensor was intrarectally inserted. Thereafter, the body temperature was automatically measured every 10 minutes. The test compound dissolved in saline was subcutaneously administered 3 or 3.5 hours after administration of reserpine. After the administration of the test compound, the body temperature was measured every 10 minutes over the period of 120 minutes. The area below the body temperature line during the period was calculated, from which the regression line was estimated based upon least square method, and estimated was the amount of the test compound necessary for raising the body temperature by 1 °C on the average for 120 minutes from that just before the administration of the test compound (Table 1).

[3] = 10 min, intravenous administration at the dose of 0.1 mg/kg, read-out: Reflex amplitude (%) 10 min. after
[4] = 10 min, intravenous administration at the dose of 0.3 mg/kg (footnote *), read-out: Reflex amplitude (%) 10 min. after
[5] = intravenous administration at the dose of 0.1 mg/kg
[6] = intravenous administration at the dose of 0.3 mg/kg (footnote *)
[7] = 1 h, intravenous administration at the dose of 0.1 mg/kg, read-out: Reflex amplitude (%) 60 min. after

Row | Structure (SMILES) | response vs control in vivo at 0.1 mg/kg (Wistar male rats; [3]) | response vs control in vivo at 0.3 mg/kg (Wistar male rats; [4]) | Area below the reflex amplitude linking line (Wistar male rats; [5]) | Area below the reflex amplitude linking line (Wistar male rats; [6]) | ED (3000 locomotor counts) (ICR male mice [1]) | ED (1 degC rise in body temperature) (ICR male mice [2]) | Reflex amplitude (%) 10 min. after (Wistar male rats; [5]) | Reflex amplitude (%) 60 min. after (Wistar male rats; [5]) | Concentration of test compound necessary for inducing 3000 count of automatism quantity in 2 hours (ICR male mice [1]) | Concentration of test compound necessary for raising body temperature by 1 °C on the average for 120 minutes (ICR male mice [2]) | response vs control in vivo at 0.1 mg/kg (Wistar male rats; [7]) | response vs control in vivo at 0.3 mg/kg (Wistar male rats; 1 h, intravenous administration at the dose of 0.3 mg/kg (footnote *), read-out: Reflex amplitude (%) 60 min. after)
1 | C[C@H]1CC(=O)C[C@H]1C(=O)N[C@@H](Cc1c[nH]cn1)C(=O)N1CCC[C@H]1C(N)=O (mixture of isomers) [Compound 19, N^α-(cis-2-Methyl-4-oxocyclopentanecarbonyl)-L-histidyl-L-prolinamide] | 138% | 250% | 11860 | 19114 | 0.54 mg/kg | 0.14 mg/kg | – | – | – | – | – | –
2 | C[C@@H]1CC(=O)C[C@H]1C(=O)N[C@@H](Cc1c[nH]cn1)C(=O)N1CCC[C@H]1C(N)=O (mixture of isomers) [Compound 20, N^α-(trans-2-Methyl-4-oxocyclopentanecarbonyl)-L-histidyl-L-prolinamide] | 105% | 129% | 6317 | 10355 | 1.3 mg/kg | 0.27 mg/kg | – | – | – | – | – | –
3 | NC(=O)[C@@H]1CCCN1C(=O)[C@H](Cc1c[nH]cn1)NC(=O)[C@H]1NC(=O)C[C@@H]1c1ccccc1 (relative stereo) [Compound 10, N^a-(trans-3-Phenylpyroglutamyl)-L-histidyl-L-prolinamide] | – | – | 16593 | – | – | – | 242.7% | 329.2% | 1.89 mg/kg | 0.53 mg/kg | – | –
4 | NC(=O)[C@@H]1CCCN1C(=O)[C@H](Cc1c[nH]cn1)NC(=O)[C@H]1NC(=O)C[C@H]1c1ccccc1 (relative stereo) [Compound 11, N^α-(cis-3-Phenylpyroglutamyl)-L-histidyf-L-prolinamide] | – | – | 11321 | – | – | – | 140.4% | 240.8% | 1.89 mg/kg | 0.28 mg/kg | – | –
5 | C[C@@H]1CC(=O)N[C@@H]1C(=O)N[C@@H](Cc1c[nH]cn1)C(=O)N1CCC[C@H]1C(N)=O [Compound 1, N^α-(cis-3-Methylpyroglutamyt)-L-histidyl-L-prolinamide] | 159% | – | 12970 | – | 0.51 mg/kg | 0.3 mg/kg | – | – | – | – | – | –
6 | C[C@H]1CC(=O)N[C@@H]1C(=O)N[C@@H](Cc1c[nH]cn1)C(=O)N1CCC[C@H]1C(N)=O [Compound 2, N^α-(trans-3-Methylpyroglutamyl)-L-histidyl-L-prolinamide] | 126% | – | 7077 | – | 12.9 mg/kg | 1.11 mg/kg | – | – | – | – | – | –
7 | C[C@@H]1CC(=O)N[C@@H]1C(=O)N[C@@H](Cc1c[nH]cn1)C(=O)N1CSC[C@H]1C(N)=O [Compound 3, 3-[N^α-(cis-3-Methylpyroglutamyt)-L-histidyl]-L-thiazolidine-4-carboxamide] | 190% | – | 13811 | – | 0.47 mg/kg | 0.2 mg/kg | – | – | – | – | 278% | –
8 | C[C@H]1CC(=O)N[C@@H]1C(=O)N[C@@H](Cc1c[nH]cn1)C(=O)N1CSC[C@H]1C(N)=O [Compound 4, 3-[N^α-(trans-3-Methylpyroglutamyl)-L-histidyl]-L-thiazolidine-4-carboxamide] | 143% | – | 9404 | – | 0.63 mg/kg | 0.34 mg/kg | – | – | – | – | 164% | –
9 | C[C@@H]1CC(=O)O[C@@H]1C(=O)N[C@@H](Cc1c[nH]cn1)C(=O)N1CCC[C@H]1C(N)=O [Compound 5, N^α-[(2S,3R)-Tetrahydro-3-methyl-5-oxo-2-furancarbonyl]-L-histidyl-L-prolinamide] | 132% | – | 9221 | – | 0.7 mg/kg | 0.12 mg/kg | – | – | – | – | – | –
10 | NC(=O)[C@@H]1CCCN1C(=O)[C@H](Cc1c[nH]cn1)NC(=O)C1CCC(=O)C1 (stereo partly drawn) [Compound 13, N^α-(3-Oxocyclopentanecarbonyl)-L-histidyl-L-prolinamide] | 110% | – | 8572 | – | 1.03 mg/kg | 0.71 mg/kg | – | – | – | – | – | –
11 | NC(=O)[C@@H]1CCCN1C(=O)[C@H](Cc1c[nH]cn1)NC(=O)[C@@H]1CCC(=O)C1 [Compound 16, N^a-[(1 R)-3-Oxocyclopentanecarbonyl]-L-histidyl-L-prolinamide] | 152% | – | 12016 | – | 0.88 mg/kg | 0.12 mg/kg | – | – | – | – | – | –
12 | CC1(C)CC(=O)CC1C(=O)N[C@@H](Cc1c[nH]cn1)C(=O)N1CCC[C@H]1C(N)=O (stereo partly drawn) [Compound 21, N^α-(2,2-Dimethyl-4-oxocyclopentanecarbonyl)-L-histidyl-L-prolinamide] | 115% | 170% | 7186 | 14294 | 0.83 mg/kg | 0.18 mg/kg | – | – | – | – | – | –
13 | NC(=O)C1CCCN1C(=O)C(Cc1c[nH]cn1)NC(=O)C1CCC(=O)O1 (centres unmarked) [DN1417, reference compound] | – | 114% | – | 8152 | 4.34 mg/kg | 2.06 mg/kg | – | – | – | – | – | 163%
14 | NC(=O)[C@@H]1CCCN1C(=O)[C@H](Cc1c[nH]cn1)NC(=O)[C@@H]1CCC(=O)N1 [TRH, L-pyroglutamyl-L-histidyl-L-prolinamide, reference compound] | 118% | – | – | – | 6.82 mg/kg | – | – | – | – | – | – | –
